In series [1] the test system is methionyl-tRNA formyltransferase (Fmt). Description: In vitro transformylation assay with Fmt. Type of series: biochemical, Schlegelella brevitalea DSM 7029. Particulars: 1 mM substrate, 25 μM Fmt, 1.5 mM N5,N10-methenylH4F, 50 mM HEPES pH 7.5, 30 °C, 4 h. The procedure:
The in vitro assay of formyltransferase was tested. In brief, the formyl-donor co-substrate intermediate N^5, N^10-methenylH4F was first synthesized as follow: 14 mg of N^5-fH4F was dissolved in 3 mL of water and was converted to N^5, N^10-methenylH^4F through addition of 0.1 M HCl, until pH 1.9 was reached. The solution was then brought to a final volume of 4.4 mL with water and continually incubated at room temperature for 4 h. Then, the transformylation assay was setup in a 50 μL volume, in the presence of 50 mM HEPES buffer pH 7.5, 1 mM substrates (compounds 1, 1a, 13a), 1.5 mM N^5, N^10-methenylH4F, and 25 μM Fmt (35 kDa). Before the addition of the compounds and the enzyme, the intermediate N^5, N^10-methenylH4F was preincubated in the reaction buffer at 30 °C for 30 min, to permit the final pH-dependent conversion to N^10-fH4F. After the addition of the compounds and the enzyme, the reaction was allowed to proceed for 4 h at 30 °C, then ceased by the addition of 2 μL FA, and analyzed via HPLC‒MS. The condition for 1: 0–3 min, 20% ACN; 3–18 min, 20–60% ACN; 18.1 min, 95% ACN; 18.1–22 min, 95% ACN; 22.1 min, 20% ACN; 22.1–25 min, 20% ACN, ACN and H2O contained 0.1% FA; detection by UV spectroscopy at 200–400 nm. […]

A further series relates to human cells Kasumi. The series is described as follows: MTT cytotoxicity assay, Kasumi. Type of series: cell-based. Put shortly:
(§1)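 MTT read-out of viability; cancer lines plus normal 2B epithelial cells. Lines authenticated by morphology, gene/protein expression.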
(Formazan colour is commonly taken as a measure of viable cells.)

The test system of series [2] is human colon cancer cell HCT-116. The series is described as follows: cells. Type of series: cell-based. Particulars: 24 h. Put shortly:
(§2)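 Cells were exposed to compounds and viability was then quantified by MTT assay, per an earlier published method. Panel included leukemia Kasumi, hepatoma HepG-2, gastric SGC-7901 and normal lung epithelial 2B cells.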

For series [3], the system named is human gastric cancer cell SGC-7901. The series is described as follows: cells. In kind it is cell-based. Particulars: 24 h. Put shortly: as §1
Series [4] has as its system human acute lymphoblastic leukemia cells K562. The series is described as follows: cells. In kind it is cell-based. Particulars: 24 h. In a few lines: (§3)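 Compound cytotoxicity is assessed with the MTT method in human cancer cells and normal 2B lung epithelial cells.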
The subject of series [5] is human hepatoma cell HepG-2. The series is described as follows: cells. In kind it is cell-based. Particulars: 24 h. Put shortly: as §3
In series [6] the test system is human lung epithelial normal cell 2B. Description: cells. In kind it is cell-based. Particulars: 24 h. In a few lines:
as §3

In series [7] the test system is human breast adenocarcinoma cells MCF7. The series is described as follows: cells. In kind it is cell-based. Particulars: 24 h. In a few lines:
as §3

The subject of series [8] is human breast adenocarcinoma cells MDA-MB-231. The series is described as follows: cells. Particulars: 24 h. In kind it is cell-based. Put shortly: as §2
Series [9] concerns human lung adenocarcinoma cell A549. Description: MTT cytotoxicity assay, A549. Type of series: cell-based. Particulars: for IC50: 24 h. In a few lines: as §2
Series [10] is described as follows: Chemical stability of 1 in MeOH (oxidation to 2). Particulars: purified 1 dissolved in MeOH for 3 days. Type of series: physicochemical.
The test system of series [11] is S. brevitalea DSM 7029 wild type. Description: Biofilm formation of DSM 7029 wild type with compounds (crystal violet). Type of series: cell-based, Schlegelella brevitalea DSM 7029. In a few lines: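 CYMG medium inoculated 1:100 from overnight culture with compounds at 0.1 μg/μL; OD600 read hourly for 42 h with shaking. Biofilm quantified at 18 h and 36 h by 0.1% crystal violet staining, 95% ethanol elution, OD600. Pigment secretion measured as OD600 of cell-free supernatant.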

Series [12] has the same test system. The series is described as follows: Growth curve of DSM 7029 wild type with compounds (Bioscreen C). In kind it is cell-based, Schlegelella brevitalea DSM 7029. Particulars: CYMG medium, compound 0.1 μg/μL, OD600 every hour for 42 h, Bioscreen C. The procedure:
The growth curve was tested by Bioscreen C (Labsystems, Finland) as follow. Overnight culture was inoculated into 400 μL fresh CYMG medium in the ratio of 1:100 (the concentration of compounds was 0.1 μg/μL) and shook in normal speed. The OD600 value was gained in every hour for 42 h in total. Biofilm formation was measured at 18 h and 36 h respectively, as reported previously. In brief, the free-floating cells were removed, and the microtitre plate was washed with PBS (pH 7.4) after incubation for 18 h and 36 h. The biofilm was stained by adding 200 µL of crystal violet (0.1%) solution. Crystal violet solution was removed after 15 min and 200 µL of ethanol (95%) was added. The absorbance at OD600 was read using a microplate reader (Infinite M200, Tecan, Männedorf, Switzerland). Meanwhile, free-floating cells were used to test the secretion of pigment. The bacteria were removed and the supernatant was measured at OD600.

The subject of another series is tumor lines. The series is described as follows: MTT cytotoxicity assay, statements on the whole panel. Type of series: cell-based, human. Put shortly:
as §1

The test system of the next series is RAW 264.7 cells. The series is described as follows: NO production in LPS-induced RAW264.7 cells (Griess method), anti-inflammatory. Particulars: compounds 0-80 μM for 30 min, then co-treatment with LPS 24 h; Griess reagents, OD 540 nm. Type of series: cell-based. From the text:
The two human acute lymphoblastic leukemia cells K562 and Kasumi, two human breast adenocarcinoma cells MCF7 and MDA-MB-231, human hepatoma cell HepG-2, human lung adenocarcinoma cell A549, human gastric cancer cell SGC-7901, human colon cancer cell HCT-116, human ovarian cancer cell line SKOV3, or human lung epithelial normal cell 2B were obtained from Beyotime Biotechnology and utilized to test the cytotoxicity of compounds by MTT assays as previous study. The anti-inflammatory effect of the compounds was detected by the influence on the increase in the level of nitric oxide caused by lipopolysaccharide (LPS) based on the classic Griess method. RAW 264.7 cells (Shanghai Institutes for Biological Science) were seeded in 96-well plates and incubated for 24 h. Then, cells were treated with compounds 29, 29a, 31, and 31a (0-80 μM) for 30 min, followed by co-treatment with LPS ([…]) for another 24 h. The Nitric Oxide assay kit with Griess reagents (Beyotime, Lot: S0021, Shanghai, China) was used to examine cellular supernatant nitrite accumulation, which represents cellular NO levels. The OD value of 540 nm absorbance was detected with a microplate reader. […]
We measured NO production to test the anti-inflammatory activity of compounds […]
cellular NO levels. The OD value of 540 nm absorbance was detected with a microplate […]

Series [13] concerns human ovarian cancer cell line SKOV3. Description: cells. Type of series: cell-based. Particulars: 24 h. Put shortly:
as §3

[14] abbreviates: relative to wild type treated with H2O = 100%, crystal violet 0.1%, OD600, mean of n = 3.

Entries after “also recorded” stand apart in the source; their conditions may differ. Non-standard residues stand in square brackets, D forms with d. Residues, ends and D or L forms follow the SMILES beside them. *: point of attachment. Octanoyl = CCCCCCCC(=O)*; NH(CH2)4NH2 = NCCCCN*

The record followed here is article PMC10587159, “Biosynthesis and engineering of the nonribosomal peptides with a C-terminal putrescine” (Nature Communications, 2023).

As a reminder, the IC50 is the concentration that inhibits the measured activity by half. Low readings indicate inhibition by little substance, high ones a need for much substance. On to `CSCC[C@@H](N)C(=O)N[C@H](CC(N)=O)C(=O)N1CCC[C@H]1C(=O)N[C@H](C(=O)N[C@H](Cc1ccccc1)C(=O)N1CCC[C@H]1C(=O)N[C@@H](Cc1c[nH]c2ccccc12)C(=O)N[C@@H](C(=O)N[C@@H](C)C(=O)N[C@H](C)C(=O)N[C@@H](CO)C(=O)N[C@@H](C)C(=O)NCCCCN)C(C)C)C(C)C` [Compound 1, Glidonin A] (H-[dM][dN]PV[dF]PW[dV]A[dA]SA-{NH(CH2)4NH2}), for which the “formylation by Fmt, formyl product by HPLC-MS” value in series [1] is listed as “higher than control”. The IC50 in the series on human cells Kasumi (24 h) is 18.3 ± 1.22 µM; in [2] it was greater than 20 µM; in series [3], greater than 20 µM; in series [4], greater than 20 µM; in series [5], greater than 20 µM; in series [6], greater than 20 µM. The half-inhibitory concentration (IC50) is greater than 20 µM in series [7], greater than 20 µM in series [8] and 7.2 ± 0.79 µM in [9]. For the same compound, the “cytotoxic activity against Kasumi in words” value in the series on human cells Kasumi (MTT assay) was “moderate activities”. Besides, the “cytotoxic / antitumor activity against A549 in words” value in series [9] (MTT assay) is reported as “moderate activities”. For the same compound, the “chemical stability: change of 1 to the Met(O) product 2” value in series [10] is given as “without changing to 2”. The “effect on biofilm formation of DSM 7029 wild type in words” value in [11] (crystal violet staining) is given as “less effect on biofilm formation”. In addition, in series [11] (setting [14]), the “biofilm formation 18 h, Average” value is 98.1978%. Further, the “biofilm formation 36 h, Average” value in [11] (setting [14]) was determined as 87.2902%. For the same compound, in series [12], the “effect on growth of DSM 7029 wild type in words” value is “no effect”.
In the case of `CCCCCCCC(=O)N[C@H](C(=O)N[C@@H](Cc1ccccc1)C(=O)N[C@@H](CCC(=O)O)C(=O)N[C@H](C(=O)N[C@@H](C)C(=O)NCCCCN)[C@@H](C)CC)C(C)C` [Compound 31] (Octanoyl-VFEIA-{NH(CH2)4NH2}; N-terminus assumed), the IC50 with tumor lines (24 h) is greater than 40 µM; in [13] it was 241.4 ± 0.07 µM; in series [5], 136.2 ± 0.15 µM; in [6] it was 42.6 ± 1.25 µM; in series [8] it was 168.9 ± 1.05 µM; in [9], 198.3 ± 1.25 µM. The “cytotoxic / antitumor activity in words” value in the series with tumor lines (MTT assay, panel of tumor cell lines) is “higher anti-inflammatory and antitumor activities than 29a and 31a”. Also, in the series with RAW 264.7 cells, the “anti-inflammatory activity (NO production in LPS-induced RAW264.7 cells) in words” value was “higher anti-inflammatory and antitumor activities than 29a and 31a; also recorded: moderate; also recorded: suppressed moderately the release”.
